# Data taken from patent US8815858B2, “Heterocyclic flaviviridae virus inhibitors” (Gilead Sciences, Inc., priority 2010, dated 2014).
# Test system: HCV replicon (1B Replicon)
# Experiment: HCV replicon assay, inhibition of viral replication (luciferase)
# Format: cell-based
# Conditions: Hepatitis C virus, 72 h; 10 uM compound; human hepatoma Huh-7 HCV replicon cells; 3 days incubation; luminescence; read-out: % inh at 10 uM (1B Replicon)
# Procedure: The anti-HCV activity of the compounds of this invention was tested in a human hepatoma Huh-7 cell line harboring a HCV replicon. The assay comprised the following steps:
# Serial dilution was performed in 100% DMSO in a 384-well plate. A solution containing a compound at 225-fold concentration of the starting final serial dilution concentration was prepared in 100% DMSO and 15 uL added to the pre-specified wells in column 3 or 13 of a polypropylene 384-well plate. The rest of the 384-well plate was filled with 10 uL 100% DMSO except for columns 23 and 24, where 10 uL of 500 uM a HCV protease inhibitor (ITMN-191) in 100% DMSO was added. The HCV protease inhibitor was used a control of 100% inhibition of HCV replication. The plate was then placed on a Biomek FX Workstation to start the serial dilution. The serial dilution was performed for ten cycles of 3-fold dilution from column 3 to 12 or from column 13 to 22.
# To each well of a black polypropylene 384-well plate, 90 μL of cell media containing 1600 suspended Huh-7 HCV replicon cells was added with a Biotek uFlow Workstation. A volume of 0.4 μL of the compound solution was transferred from the serial dilution plate to the cell culture plate on a Biomek FX Workstation. The DMSO concentration in the final assay condition was 0.44%. The plates were incubated for 3 days at 37° C. with 5% CO2 and 85% humidity.
# b) Assessment of inhibition of viral replication: The calcein-PBS solution in the 384-well cell culture plate was aspirated with a Biotek EL405 plate-washer. A volume of 20 μL of Dual-Glo luciferase buffer (Promega, Dual-Glo Luciferase Assay Reagent, cat. #E298B) was added to each well of the plate with a Biotek uFlow Workstation. The plate was incubated for 10 minutes at room temperature. A volume of 20 μL of a solution containing 1:100 mixture of Dual-Glo Stop & Glo substrate (Promega, Dual-Glo Luciferase Assay Reagent, cat. #E313B) and Dual-Glo Stop & Glo buffer (Promega, Dual-Glo Luciferase Assay Reagent, cat. #E314B) was then added to each well of the plate with a Biotek uFlow Workstation. The plate was incubated at room temperature for 10 minutes before the luminescence signal was measured with a Perkin Elmer Envision Plate Reader.
# The percent cytotoxicity was determined by calcein AM conversion to fluorescent product. The average fluorescent signal from the DMSO control wells were defined as 100% nontoxic. The individual fluorescent signal from testing compound treated well was divided by the average signal from DMSO control wells and then multiplied by 100% to get the percent viability. The percent anti-HCV replication activity was determined by the luminescence signal from the testing well compared to DMSO controls wells. The background signal was determined by the average luminescence signal from the HCV protease inhibitor treated wells and was subtracted from the signal from the testing wells as well as the DMSO control wells. Following 3-fold serial dilutions, the EC50 and CC50 values were calculated by fitting % inhibition at each concentration to the following equation: % inhibition=100%/[(EC50/[I])^b+1]
# % inhibition values at any specific concentration, for example 10 μM, can also be derived from the formula above.
row,Structure (SMILES),inhibition at 10 µM [%]
1,COc1ccc(-c2nnc(Cn3cnc4c(C#Cc5cncnc5)c(-c5ccccc5F)nc-4c3)s2)c(C(F)(F)F)c1,97.8
2,COc1ccc(-c2nnc(Cn3cnc4c(C(N)=O)c(-c5ccccc5F)nc-4c3)s2)c(C(F)(F)F)c1,36.6
3,COc1ccc(-c2nnc(Cn3ccc4cc(-c5ccccc5F)nc-4n3)s2)c(C(F)(F)F)c1,98.1
4,Fc1ccccc1-c1cc2ncn(Cc3cc(-c4ccc(C(F)(F)F)cc4C(F)(F)F)no3)cc-2n1,99.6
5,Fc1ccccc1-c1cc2ccn(Cc3ccc(-c4ccc(C(F)(F)F)cc4C(F)(F)F)nn3)nc-2n1,97.4
6,COc1ccc(-c2nnc(Cn3cnc4c(Br)c(-c5ccccc5F)nc-4c3)s2)c(C(F)(F)F)c1,100
7,COc1ccc(-c2nnc(Cn3cnc4c(C#N)c(-c5ccccc5F)nc-4c3)s2)c(C(F)(F)F)c1,99.9
8,COc1ccc(-c2nnc(Cn3cnc4cc(-c5ccccc5F)nc-4c3)s2)c(C(F)(F)F)c1,100
9,COc1ccc(-c2nnc(Cn3cnc4c(Cl)c(-c5ccccc5F)nc-4c3)s2)c(C(F)(F)F)c1,100
10,Fc1ccccc1-c1cc2ncn(Cc3ccc(-c4ccc(C(F)(F)F)cc4C(F)(F)F)nn3)cc-2n1,100
11,Fc1ccccc1-c1cc2ncn(Cc3nnc(-c4ccc(C(F)(F)F)cc4C(F)(F)F)s3)cc-2n1,100
12,Fc1ccccc1-c1cc2ccn(Cc3cc(-c4ccc(C(F)(F)F)cc4C(F)(F)F)no3)nc-2n1,77
